Measurements published in US11021457B2, “Class of isoindolone-imide ring-1,3-dione-2-ene compounds, composition and use thereof” (WIGEN BIOMEDICINE TECHNOLOGY (SHANGHAI) CO., LTD., priority 2017, dated 2021).

Legend:
Type in all cases: cell-based
[1] = tested on: SU-DHL6; assay: Inhibition of tumor cell proliferation, CellTiter-Glo, SU-DHL6; conditions: compound concentration 50 μM, 72 hours; for cell survival rate (% of control) at 50 µM: Homo sapiens, SU-DHL-6, read-out: Inhibitory activity against proliferation (cell survival rate) SU-DHL6
How it was run: (§1)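 Activity is graded from survival at 50 μM: + for 60 to under 90%, ++ for over 30 to 60%, +++ for 30% or less. Survival was measured luminescently (CellTiter-Glo) 72 h after dosing, relative to untreated and blank wells; 2000-10000 cells/well, 37° C, 5% CO2.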

[2] = tested on: RPMI-8226; assay: Inhibition of tumor cell proliferation, CellTiter-Glo, RPMI-8226; conditions: compound concentration 50 μM, 72 hours; for cell survival rate (% of control) at 50 µM: Homo sapiens, RPMI-8226, read-out: Inhibitory activity against proliferation (cell survival rate) RPMI-8226
How it was run: as §1

[3] = tested on: K562; assay: Inhibition of tumor cell proliferation, CellTiter-Glo, K562; conditions: compound concentration 50 μM, 72 hours; for cell survival rate (%) at 50 µM: Homo sapiens, K562, read-out: Inhibitory activity against proliferation (cell survival rate) K562
How it was run: as §1

[4] = tested on: A549; assay: Inhibition of tumor cell proliferation, CellTiter-Glo, A549; conditions: compound concentration 50 μM, 72 hours; for cell survival rate (% of control) at 50 µM: Homo sapiens, A549, read-out: Inhibitory activity against proliferation (cell survival rate) A549
How it was run: as §1

[5] = tested on: MDA-MB-453; assay: Inhibition of tumor cell proliferation, CellTiter-Glo, MDA-MB-453; conditions: compound concentration 50 μM, 72 hours; for cell survival rate (%) at 50 µM: Homo sapiens, MDA-MB-453, read-out: Inhibitory activity against proliferation (cell survival rate) MDA-MB-453
How it was run: as §1

[6] = tested on: BxPC-3; assay: Inhibition of tumor cell proliferation, CellTiter-Glo, BxPC-3; conditions: compound concentration 50 μM, 72 hours; for cell survival rate (%) at 50 µM: Homo sapiens, BXPC-3, read-out: Inhibitory activity against proliferation (cell survival rate) BxPC-3
How it was run: as §1

| Structure (SMILES) | cell survival rate (% of control) at 50 µM [1] [%] | cell survival rate (% of control) at 50 µM [2] [%] | cell survival rate (%) at 50 µM [3] [%] | cell survival rate (% of control) at 50 µM [4] [%] | cell survival rate (%) at 50 µM [5] [%] | cell survival rate (%) at 50 µM [6] [%] | Inhibitory activity against proliferation (cell survival rate) SU-DHL6 [1] | Inhibitory activity against proliferation (cell survival rate) RPMI-8226 [2] | Inhibitory activity against proliferation (cell survival rate) K562 [3] | Inhibitory activity against proliferation (cell survival rate) A549 [4] | Inhibitory activity against proliferation (cell survival rate) MDA-MB-453 [5] | Inhibitory activity against proliferation (cell survival rate) BxPC-3 [6] |
| --- | --- | --- | --- | --- | --- | --- | --- | --- | --- | --- | --- | --- |
| O=C1CCC(N2Cc3c(NC=C4C(=O)CN(c5ccccc5)CC4=O)cccc3C2=O)C(=O)N1 (stereo not drawn) [Compound 119] | 30 to 60 | 30 to 60 | 30 to 60 | 60 to 90 | 30 to 60 | 30 to 60 | – | – | – | – | – | – |
| O=C1CCC(N2Cc3c(N/C=C4\C(=O)Nc5c(ccc6ccccc56)C4=O)cccc3C2=O)C(=O)N1 (stereo not drawn) [Compound 138] | ≤ 30 | 30 to 60 | 30 to 60 | ≤ 30 | ≤ 30 | 60 to 90 | – | – | – | – | – | – |
| O=C1CCC(N2Cc3c(NC=C4C(=O)CC(c5nccs5)CC4=O)cccc3C2=O)C(=O)N1 (stereo not drawn) [Compound 111] | ≤ 30 | ≤ 30 | ≤ 30 | 60 to 90 | ≤ 30 | 60 to 90 | – | – | – | – | – | – |
| O=C1CCC(N2Cc3c(NC=C4C(=O)CC(c5ccc(-c6ccncc6)cc5)CC4=O)cccc3C2=O)C(=O)N1 (stereo not drawn) [Compound 117] | – | – | – | – | – | – | + (60≤survival rate (%)<90) | +++ (survival rate (%)≤30) | ++ (30<survival rate (%)≤60) | + (60≤survival rate (%)<90) | + (60≤survival rate (%)<90) | + (60≤survival rate (%)<90) |
| O=C1CCC(N2Cc3c(NC=C4C(=O)CC(c5ccccc5C(F)(F)F)CC4=O)cccc3C2=O)C(=O)N1 (stereo not drawn) [Compound 23] | – | – | – | – | – | – | +++ (survival rate (%)≤30) | +++ (survival rate (%)≤30) | ++ (30<survival rate (%)≤60) | +++ (survival rate (%)≤30) | ++ (30<survival rate (%)≤60) | ++ (30<survival rate (%)≤60) |
| O=C1CCC(N2C(=O)c3cccc(NC(=O)CN4CCN(CCNC=C5C(=O)CC(c6ccccc6)CC5=O)CC4)c3C2=O)C(=O)N1 (stereo not drawn) [Compound 55] | – | – | – | – | – | – | +++ (survival rate (%)≤30) | ++ (30<survival rate (%)≤60) | + (60≤survival rate (%)<90) | +++ (survival rate (%)≤30) | ++ (30<survival rate (%)≤60) | + (60≤survival rate (%)<90) |
| O=C1CCC(N2Cc3c(NC(=O)Nc4ccccc4OC(=O)CCC(=O)OCCN4CCN(CCNC=C5C(=O)CC(c6ccccc6)CC5=O)CC4)cccc3C2=O)C(=O)N1 (stereo not drawn) [Compound 81] | – | – | – | – | – | – | +++ (survival rate (%)≤30) | + (60≤survival rate (%)<90) | +++ (survival rate (%)≤30) | +++ (survival rate (%)≤30) | ++ (30<survival rate (%)≤60) | + (60≤survival rate (%)<90) |
| CC(Nc1cccc2c1CN(C1CCC(=O)NC1=O)C2=O)=C1C(=O)CC(c2ccccc2)CC1=O (stereo not drawn) [Compound 73] | – | – | – | – | – | – | +++ (survival rate (%)≤30) | + (60≤survival rate (%)<90) | +++ (survival rate (%)≤30) | +++ (survival rate (%)≤30) | +++ (survival rate (%)≤30) | + (60≤survival rate (%)<90) |
| O=C1CCC(N2Cc3c(NC(=O)NCCNC=C4C(=O)CC(c5ccccc5)CC4=O)cccc3C2=O)C(=O)N1 (stereo not drawn) [Compound 77] | – | – | – | – | – | – | + (60≤survival rate (%)<90) | + (60≤survival rate (%)<90) | +++ (survival rate (%)≤30) | +++ (survival rate (%)≤30) | +++ (survival rate (%)≤30) | + (60≤survival rate (%)<90) |
| O=C1CCC(N2Cc3c(NC=C4C(=O)CC(c5ncnc6sccc56)CC4=O)cccc3C2=O)C(=O)N1 (stereo not drawn) [Compound 130] | – | – | – | – | – | – | +++ (survival rate (%)≤30) | ++ (30<survival rate (%)≤60) | ++ (30<survival rate (%)≤60) | +++ (survival rate (%)≤30) | +++ (survival rate (%)≤30) | + (60≤survival rate (%)<90) |
| O=C1CCC(N2Cc3c(NC(=O)OCOC(=O)C=CC(=O)N4CCN(CCNC=C5C(=O)CC(c6ccccc6)CC5=O)CC4)cccc3C2=O)C(=O)N1 (stereo not drawn) [Compound 85] | – | – | – | – | – | – | + (60≤survival rate (%)<90) | +++ (survival rate (%)≤30) | ++ (30<survival rate (%)≤60) | ++ (30<survival rate (%)≤60) | + (60≤survival rate (%)<90) | + (60≤survival rate (%)<90) |
| O=C1CCC(N2Cc3c(NC(=O)c4cccnc4NC=C4C(=O)CC(c5ccccc5)CC4=O)cccc3C2=O)C(=O)N1 (stereo not drawn) [Compound 67] | – | – | – | – | – | – | +++ (survival rate (%)≤30) | +++ (survival rate (%)≤30) | +++ (survival rate (%)≤30) | +++ (survival rate (%)≤30) | ++ (30<survival rate (%)≤60) | + (60≤survival rate (%)<90) |
| CC1C(=O)/C(=C/Nc2cccc3c2CN(C2CCC(=O)NC2=O)C3=O)C(=O)CC1c1ccccc1 (stereo not drawn) [Compound 127] | ≤ 30 | 60 to 90 | 60 to 90 | 60 to 90 | 60 to 90 | 60 to 90 | – | – | – | – | – | – |
| O=C1CCC(N2C(=O)c3cccc(NC(=O)OCCN4CCN(CCNC=C5C(=O)CC(c6ccccc6)CC5=O)CC4)c3C2=O)C(=O)N1 (stereo not drawn) [Compound 80] | – | – | – | – | – | – | + (60≤survival rate (%)<90) | +++ (survival rate (%)≤30) | +++ (survival rate (%)≤30) | +++ (survival rate (%)≤30) | ++ (30<survival rate (%)≤60) | + (60≤survival rate (%)<90) |
| O=C1CCC(N2Cc3c(NCCOCCOCCOCCN4CCN(CCNC=C5C(=O)CC(c6ccccc6)CC5=O)CC4)cccc3C2=O)C(=O)N1 (stereo not drawn) [Compound 133] | – | – | – | – | – | – | + (60≤survival rate (%)<90) | + (60≤survival rate (%)<90) | ++ (30<survival rate (%)≤60) | + (60≤survival rate (%)<90) | + (60≤survival rate (%)<90) | ++ (30<survival rate (%)≤60) |
| Cc1cc(C(=O)Nc2cccc3c2CN(C2CCC(=O)NC2=O)C3=O)ccc1NC=C1C(=O)CC(c2ccccc2)CC1=O (stereo not drawn) [Compound 51] | – | – | – | – | – | – | + (60≤survival rate (%)<90) | +++ (survival rate (%)≤30) | + (60≤survival rate (%)<90) | + (60≤survival rate (%)<90) | + (60≤survival rate (%)<90) | + (60≤survival rate (%)<90) |
| O=C1CCC(N2Cc3c(NC(=O)CCC(=O)OCCN4CCN(CCNC=C5C(=O)CC(c6ccccc6)CC5=O)CC4)cccc3C2=O)C(=O)N1 (stereo not drawn) [Compound 56] | – | – | – | – | – | – | +++ (survival rate (%)≤30) | + (60≤survival rate (%)<90) | + (60≤survival rate (%)<90) | +++ (survival rate (%)≤30) | +++ (survival rate (%)≤30) | + (60≤survival rate (%)<90) |
